# Like-named read-outs stand apart in the source and are kept apart here.
# How the values were obtained:
# Assay type in all cases: binding
# [1] = biological target: T1, HeLa cell extract proteins (Homo sapiens, UniProt P52789)
# T1 construct: endogenous in cells; host or cells: HeLa cell extract
# T1 sequence (P52789 1-917): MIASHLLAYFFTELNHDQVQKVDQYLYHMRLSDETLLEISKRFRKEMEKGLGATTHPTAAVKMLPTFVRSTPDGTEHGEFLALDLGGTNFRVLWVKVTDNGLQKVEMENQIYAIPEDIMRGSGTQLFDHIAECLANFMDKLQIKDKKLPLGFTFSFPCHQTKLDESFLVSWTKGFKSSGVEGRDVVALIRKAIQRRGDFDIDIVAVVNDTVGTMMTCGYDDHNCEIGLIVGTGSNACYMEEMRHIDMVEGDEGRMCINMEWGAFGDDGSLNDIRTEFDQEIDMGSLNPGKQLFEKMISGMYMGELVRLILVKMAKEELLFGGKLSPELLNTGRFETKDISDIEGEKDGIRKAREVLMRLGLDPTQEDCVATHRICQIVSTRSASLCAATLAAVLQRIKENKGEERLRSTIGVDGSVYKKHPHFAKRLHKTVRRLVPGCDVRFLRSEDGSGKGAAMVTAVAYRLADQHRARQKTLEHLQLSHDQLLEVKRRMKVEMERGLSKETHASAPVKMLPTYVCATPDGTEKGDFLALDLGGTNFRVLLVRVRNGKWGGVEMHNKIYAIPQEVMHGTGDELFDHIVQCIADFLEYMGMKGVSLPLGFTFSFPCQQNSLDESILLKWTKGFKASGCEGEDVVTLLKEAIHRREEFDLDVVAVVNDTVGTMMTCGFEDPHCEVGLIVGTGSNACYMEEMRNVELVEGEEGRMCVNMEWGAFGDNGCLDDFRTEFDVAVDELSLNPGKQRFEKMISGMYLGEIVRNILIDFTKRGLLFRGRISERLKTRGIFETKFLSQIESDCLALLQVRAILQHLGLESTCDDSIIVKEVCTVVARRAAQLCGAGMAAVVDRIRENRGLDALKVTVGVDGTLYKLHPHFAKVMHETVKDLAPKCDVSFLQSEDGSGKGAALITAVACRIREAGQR
# [2] = biological target: T2, HeLa cell extract proteins (Homo sapiens, UniProt Q14697)
# T2 construct: endogenous in cells; host or cells: HeLa cell extract
# T2 sequence (Q14697 29-944): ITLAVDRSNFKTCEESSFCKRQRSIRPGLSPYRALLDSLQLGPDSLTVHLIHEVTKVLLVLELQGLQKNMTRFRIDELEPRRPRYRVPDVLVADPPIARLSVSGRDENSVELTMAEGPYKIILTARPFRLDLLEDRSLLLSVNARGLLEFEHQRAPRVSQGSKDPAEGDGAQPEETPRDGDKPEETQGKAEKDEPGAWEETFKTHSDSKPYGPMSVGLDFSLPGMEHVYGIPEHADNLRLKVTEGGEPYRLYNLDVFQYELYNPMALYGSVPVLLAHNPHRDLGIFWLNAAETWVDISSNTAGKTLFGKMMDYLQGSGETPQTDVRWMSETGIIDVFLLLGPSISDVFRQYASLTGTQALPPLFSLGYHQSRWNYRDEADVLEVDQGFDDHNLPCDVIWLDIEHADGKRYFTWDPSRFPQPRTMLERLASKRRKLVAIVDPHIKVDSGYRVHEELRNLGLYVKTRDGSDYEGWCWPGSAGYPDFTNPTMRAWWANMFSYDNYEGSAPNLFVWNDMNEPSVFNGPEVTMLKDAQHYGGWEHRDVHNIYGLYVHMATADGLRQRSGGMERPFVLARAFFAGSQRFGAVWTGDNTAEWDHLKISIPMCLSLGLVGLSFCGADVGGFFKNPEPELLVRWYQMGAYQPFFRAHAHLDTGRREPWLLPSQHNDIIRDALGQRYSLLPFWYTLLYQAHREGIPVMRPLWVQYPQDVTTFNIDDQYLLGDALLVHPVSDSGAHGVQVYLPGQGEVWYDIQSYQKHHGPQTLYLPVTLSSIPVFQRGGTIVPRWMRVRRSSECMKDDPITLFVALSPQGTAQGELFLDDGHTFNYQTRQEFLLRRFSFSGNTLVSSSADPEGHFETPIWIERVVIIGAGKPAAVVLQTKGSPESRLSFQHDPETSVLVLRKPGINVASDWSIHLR
# [3] = biological target: T3, HeLa cell extract proteins (Homo sapiens, UniProt Q15008)
# T3 construct: endogenous in cells; host or cells: HeLa cell extract
# T3 sequence (Q15008 1-389): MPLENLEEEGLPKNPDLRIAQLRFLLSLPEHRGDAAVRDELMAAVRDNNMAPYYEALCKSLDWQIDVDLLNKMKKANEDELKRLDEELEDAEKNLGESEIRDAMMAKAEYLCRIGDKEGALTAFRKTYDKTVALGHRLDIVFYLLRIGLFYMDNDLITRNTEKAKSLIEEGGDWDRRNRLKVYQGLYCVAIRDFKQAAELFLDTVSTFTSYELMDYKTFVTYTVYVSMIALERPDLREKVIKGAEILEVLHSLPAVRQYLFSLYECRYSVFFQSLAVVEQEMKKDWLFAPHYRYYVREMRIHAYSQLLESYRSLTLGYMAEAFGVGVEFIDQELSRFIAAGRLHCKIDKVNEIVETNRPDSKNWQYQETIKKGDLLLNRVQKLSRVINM
# [4] = biological target: T4, HeLa cell extract proteins (Homo sapiens, UniProt Q969S8)
# T4 construct: endogenous in cells; host or cells: HeLa cell extract
# T4 sequence (Q969S8 1-669): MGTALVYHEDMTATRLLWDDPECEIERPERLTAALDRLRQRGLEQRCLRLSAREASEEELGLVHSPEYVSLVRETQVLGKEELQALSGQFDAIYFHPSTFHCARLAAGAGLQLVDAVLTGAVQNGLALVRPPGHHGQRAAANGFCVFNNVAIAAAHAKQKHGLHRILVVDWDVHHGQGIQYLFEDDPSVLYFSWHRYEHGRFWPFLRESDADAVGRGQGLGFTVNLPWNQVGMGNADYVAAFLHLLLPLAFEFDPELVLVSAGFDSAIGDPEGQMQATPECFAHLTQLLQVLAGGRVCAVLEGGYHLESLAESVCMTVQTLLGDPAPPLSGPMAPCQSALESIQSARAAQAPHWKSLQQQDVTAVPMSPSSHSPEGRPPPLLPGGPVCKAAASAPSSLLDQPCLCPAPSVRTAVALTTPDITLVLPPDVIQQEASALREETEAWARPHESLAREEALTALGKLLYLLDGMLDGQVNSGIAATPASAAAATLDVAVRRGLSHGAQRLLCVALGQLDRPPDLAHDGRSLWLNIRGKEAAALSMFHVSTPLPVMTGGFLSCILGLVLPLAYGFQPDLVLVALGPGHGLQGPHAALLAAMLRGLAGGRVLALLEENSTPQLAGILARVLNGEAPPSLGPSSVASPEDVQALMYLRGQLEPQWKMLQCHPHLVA
SMILES,"fold changes relative to vehicle control ([1]; HeLa, protein HK2)","fold changes relative to vehicle control ([2]; HeLa, protein GANAB)","fold changes relative to vehicle control ([3]; HeLa, protein PSMD6)","fold changes relative to vehicle control ([4]; HeLa, protein HDAC10)","fold changes relative to vehicle control ([1]; protein HK2, HeLa)","fold changes relative to vehicle control ([2]; protein GANAB, HeLa)","fold changes relative to vehicle control ([3]; protein PSMD6, HeLa)","fold changes relative to vehicle control ([4]; captured protein HDAC10, HeLa)",also measured
"Nc1nc2c(c(=O)[nH]1)N(C=O)C(CNc1ccc(C(=O)N[C@@H](CCC(=O)O)C(=O)O)cc1)CN2 (stereo partly shown) [LEU, leucovorin]",1,0.99,0.77,0.95,,,,,
"Nc1nc2[nH]cc(CCc3ccc(C(=O)N[C@@H](CCC(=O)O)C(=O)O)cc3)c2c(=O)[nH]1 [PTX, pemetrexed]",,,,,,,,,fold changes relative to vehicle control [1]: 1.02; fold changes relative to vehicle control [2]: 1; fold changes relative to vehicle control [3]: 0.69; fold changes relative to vehicle control [4]: 0.85
CCCCCCOc1ccc(Cc2cnc(N)nc2N)cc1 [compound 1],,,,,1.11,1.08,0.94,0.82,
CCCCCCOc1cccc(Cc2cnc(N)nc2N)c1 [compound 2],,,,,1.43,1.28,1.64,0.88,
Nc1nc2cccc(-c3ccccc3)c2n1Cc1ccc(Cl)c(Cl)c1 [compound 3],,,,,0.9,0.94,1.72,0.9,
NCCOCCOCC(=O)Nc1nc2ncc(CNc3ccc(C(=O)NC(CCC(=O)O)C(=O)O)cc3)nc2c(=O)[nH]1 (stereo not shown) [compound 6],1.21,1.1,0.89,0.82,,,,,
NCCCNc1ccc(C(=O)NC(CCC(=O)O)C(=O)O)cc1 (stereo not shown) [compound 7],1.03,0.97,0.82,0.95,,,,,
